# Where two headings read alike, the source gives them in different places. Peptide text beside a SMILES is read from it.
# Tests used:
# [1] = system: Caco-2 and HT-29 co-cultured cells; experiment: MTT cytotoxicity (cell viability) assay
# Method: MTT assay was used for the cytotoxicity study. […] The DMEM was discarded, and the Caco-2 and HT-29 co-cultured cells were washed with PBS before introducing TP5 test samples. […] Subsequently, 20 μL of MTT (5 mg/mL) was added, and the cells were incubated for an additional 4 h. Dimethyl sulfoxide (DMSO) was introduced to dissolve the formazan crystals, and the absorbance at 570 nm was measured using a microplate UV-Vis spectrophotometer (SpectraMax® Plus, Molecular Devices, San Jose, CA, USA). The percentage of cell viability was calculated in comparison to the untreated control group.
# For each test sample group and at every time point over the course of three days, cell viability was computed. The outcomes were consolidated using the SoftMax Pro v5 software system through Equation (1). (1) V=A/A0×100% where V is the cell viability, A is sample absorbance, and A0 is control absorbance.
# The concentration of these selected inhibitors and enhancers was screened by cytotoxicity using Caco-2 and HT-29 co-cultured cells by MTT assay. Then, these inhibitors and enhancers with safe concentrations were added to the AP side with a 0.5 mL 1 mg/mL solution of TP5 and TP5-PEG-niosomes, respectively. All inhibitors were dissolved in dimethyl sulfoxide and diluted with HBSS. The transport characteristics of TP5 and TP5-PEG-niosomes through Caco-2 and HT-29 co-cultured cell monolayers were expressed as the cumulative transported drug and transport rate. The transport rate (Flux) was denoted in μg/min/cm^2 and computed using the formula Flux = (dM/dt)/A, where dM/dt represents the cumulative amount of TP5 in the BL side per unit time (µg/min), and A is the surface area of the insert membrane (1.1 cm^2). […] The TEER values of the monolayers were assessed at 1 h intervals throughout the experimental duration, guaranteeing the integrity of the monolayers.
# [2] = system: Caco-2 and HT-29 co-cultured cells; experiment: Quantitative cellular uptake of TP5 (RP-HPLC and BCA protein assay), with inhibitors and low temperature; type: in vitro ADME, human
# Method: Briefly, 5 mL of Caco-2 and HT-29 co-cultured cells’ suspension at a density of 10^5 cells/cm^2 was seeded onto 60 mm plastic dishes (Corning, New York, NY, USA), fed complete DMEM every 3 days and incubated at 37 °C in an atmosphere of 5% CO2 and 95% relative humidity. […] Then, 25 µL of the cell lysates from each well were subjected to a BCA protein assay (Thermo Scientific, Waltham, MA, USA) to determine the amount of cell protein. The entire protein concentration in each group was calculated based on the linearity equation obtained from the BSA standard curve. Then, cell lysates were centrifuged for 15 min at 14,000 rpm, and the supernatants were analyzed for the amount of uptake TP5 using the RP-HPLC method mentioned earlier. The uptake of TP5 by Caco-2 and HT-29 co-cultured cells was calculated and expressed as the amount of drug (ng) uptake per µg cell protein. One of the mechanisms for cellular uptake depends on concentration. […] The treated Caco-2 and HT-29 co-cultured cells were then scraped off into a 2 mL microcentrifuge tube containing 1.0 mL extraction solution (10% Triton X-100) and sonicated to accelerate cell lysis. Then, 25 µL of the cell lysates from each well were subjected to a BCA protein assay (Thermo Scientific, Waltham, MA, USA) to determine the amount of cell protein as mentioned above. Then, cell lysates were centrifuged for 15 min at 14,000 rpm, and the supernatants were analyzed for the amount of uptake TP5 using the RP-HPLC method mentioned above. The uptake of TP5 by Caco-2 and HT-29 co-cultured cells was calculated and expressed as the amount of drug (ng) uptake per µg cell protein. […] The incubation temperature of 4 °C was also tested. After the removal of the drug solution and formulation (4 h incubation), the dishes were immediately rinsed twice with ice-cold HBSS solution (5 mL). The treated Caco-2 and HT-29 co-cultured cells were then scraped off into a 2 mL microcentrifuge tube containing 1.0 mL extraction solution (10% Triton X-100) and sonicated to accelerate cell lysis. Furthermore, 25 µL of the cell lysates from each well were subjected to a BCA protein assay (Thermo Scientific, Waltham, MA, USA) to determine the amount of cell protein mentioned above. Then, cell lysates were centrifuged for 15 min at 14,000 rpm, and the supernatants were analyzed for the amount of cellular uptake TP5 using the RP-HPLC method mentioned above. The uptake of TP5 by Caco-2 and HT-29 co-cultured cells was calculated and expressed as the amount of drug (ng) uptake per µg cell protein.
# [3] = Transepithelial transport across Transwell monolayers (AP to BL), with inhibitors and enhancers; type: in vitro ADME, human; details: apical to basolateral, 6 h
# Method: (§1) Caco-2 and HT-29 co-cultured cells at a density of 10^5 cells/cm^2 were seeded on 12-well Insert Transwell® inserts (0.4 µm pore diameter, 1.1 cm^2 area, Corning, New York, NY, USA). Caco-2 and HT-29 co-cultured cells were incubated at 37 °C in an atmosphere of 5% CO2 and 95% relative humidity in complete DMEM. The medium was replaced every 3 days with 0.5 mL medium on the apical (AP) side and 1.5 mL on the basolateral (BL) side, as shown in Figure 2. The integrity of the co-cultured cell monolayer was assessed by monitoring transepithelial electrical resistance (TEER). TEER measurements were conducted using a Millicell-ERS Volt-Ohm meter connected to a pair of chopstick electrodes (Millipore Corp, Boston, MA, USA). […] TEER measurements were taken at 3-day intervals until the TEER values surpassed 350 Ω·cm^2 (around 24 days post-seeding in this study). The TEER calculation utilized the formula TEER = (Rm − Rb) × A, where Rm, Rb, and A represent the measured TEER values, TEER values of the blank transwell, and the membrane surface area of the transwell (1.13 cm^2), respectively. Caco-2 monolayers with TEER values exceeding 350 Ω·cm^2 were deemed to have acceptable integrity and were considered suitable for the transport study.
# (§2) Before the transport experiments, Caco-2 and HT-29 co-cultured cell monolayers underwent equilibration with HBSS for 30 min and were subsequently aspirated. All transport studies were carried out at 37 °C. A 0.5 mL solution of TP5 and TP5-PEG-niosomes (0.1 mg TP5 per mL in HBSS) was introduced on the AP side, while the BL side of the inserts contained 1.5 mL of HBSS, as depicted in Figure 2. At 0, 60, 120, 240, and 360 min of incubation, 200 µL was withdrawn from the BL-receiving chamber and immediately replaced with an equal volume of pre-warmed HBSS (37 °C). The concentration of TP5 in the transport medium was analyzed using RP-HPLC.
# (§3) TP5 transport mechanisms were investigated in the absence or presence of variable inhibitors or enhancers. […] […].
# [4] = system: Caco-2 and HT-29 co-cultured cell monolayers; experiment: as above; type: in vitro ADME, human
# Method: as §1, §2, §3
smiles,measurement,setting,value
CN(C)C(=O)CCSC(SCCC(=O)O)c1cccc(/C=C/c2ccc3ccc(Cl)cc3n2)c1 (stereo not shown) [MK-571],safe but still effective concentration for treatment,"[1]; MTT, 72 h at 37 °C",0.1 mM
C[C@H](CCC(=O)NCCS(=O)(=O)O)[C@H]1CC[C@H]2[C@@H]3[C@H](O)C[C@@H]4C[C@H](O)CC[C@]4(C)[C@H]3C[C@H](O)[C@]12C [Sodium taurocholate],safe but still effective concentration for treatment,"[1]; MTT, 72 h at 37 °C",20 mM
"CC(C)[C@H](NC(=O)[C@H](CC(=O)O)NC(=O)[C@H](CCCCN)NC(=O)[C@@H](N)CCCN=C(N)N)C(=O)N[C@@H](Cc1ccc(O)cc1)C(=O)O [TP5, thymopentin] (H-RKDVY-OH)",cellular uptake amount with adsorptive-mediated endocytosis inhibitor,"[2]; 1 mM protamine sulphate, 4 h, p < 0.005",significantly reduced
same,cellular uptake amount at low temperature,"[2]; 4 °C, 4 h",significantly decreased
same,time of highest amount of cellular uptake drug,"[2]; HPLC and BCA assay, time course 0.5-5 h",2 h
same,cellular uptake value,"[2]; pure drug solution, in 2 h, maintained afterwards",3.56 ± 1.13 ng/µg
same,cytotoxicity (MTT cell viability),"[1]; TP5 solutions 0.005 to 10 mg/mL, 24, 48 and 72 h",not toxic
same,Papp A→B,"[3]; EDTA (10 mM), read-out: Papp values",0.142 ± 0.0089 ×10⁻⁶ cm/s
same,Papp A→B,"[3]; chlorpromazine (10 μg/mL), read-out: Papp values",0.0573 ± 0.0063 ×10⁻⁶ cm/s
same,Papp A→B,"[3]; lowest to highest over no treatment, inhibitors and enhancers, read-out: range of Papp values over all treatments",0.043 to 0.134 ×10⁻⁶ cm/s
same,Papp A→B,"[3]; no treatment, read-out: Papp values",0.0539 ± 0.0046 ×10⁻⁶ cm/s
same,Papp A→B,"[3]; silymarin (20 µM), read-out: Papp values",0.043 ± 0.0055 ×10⁻⁶ cm/s
same,Papp A→B,"[3]; sodium azide (20 mM), read-out: Papp values",0.059 ± 0.0052 ×10⁻⁶ cm/s
same,Papp A→B,"[3]; sodium taurocholate (20 mM), read-out: Papp values",0.134 ± 0.0052 ×10⁻⁶ cm/s
same,TP5 cumulative amount with EDTA,"[4]; EDTA group, after the first 60 min",increase sharply
same,"cumulative amount of TP5 transported, comparison between groups","[4]; no treatment, AP to BL",no significant difference
same,TP5 cumulative amount with sodium taurocholate,"[4]; sodium taurocholate group, after the first 60 min",increase sharply
CN(C)CCCN1c2ccccc2Sc2ccc(Cl)cc21 [chlorpromazine],safe but still effective concentration for treatment,"[1]; human, 72 h",10 µg/mL
[N-]=[N+]=[N-].[Na+] [sodium azide],safe but still effective concentration for treatment,"[1]; MTT, 72 h at 37 °C",20 mM
